Assay [1] in a line: cells. Format: functional, cell-based.
Assay [2] is described as follows: cells. It is filed as functional, cell-based. The source holds these as a separate data set.
Assay [3] can be described thus: viability of PTEN-deleted HCT116 cells – cell-based, HCT116 PTEN knockout, dose response (AID 1047).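 Note: HCT116 colon tumor cells with PTEN knocked out; cells exposed to compound for 60 hours before readout; potency for loss of cell viability measured by luminescence.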 It is filed as functional.
A short description of assay [4]: viability of HCT116 lacking mutant beta-catenin – cell-based, human colon tumor, dose response (AID 1045).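 Note: HCT116 colon tumor cells with beta catenin knocked out; cells exposed to compound for 60 hours.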 It is filed as functional.
The nature of assay [5]: microbe, parasite or virus in culture. Particulars: Mycobacterium tuberculosis. Format: functional.
Another assay addresses Cytochrome P450 2C19 (Homo sapiens, UniProt P33261). In words: Cytochrome panel assay with activity outcomes. Panel member name: p450-cyp2c19 Compounds with AC50 equal or less than 10 uM are considered active. It is filed as functional. As to conditions: read-out: AC50.
In a further assay the target is Cytochrome P450 2D6 (Homo sapiens, UniProt P10635).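 Note: CYP2D6 member of a cytochrome P450 panel assay.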
The target in the next assay is Cytochrome P450 2C9 (Homo sapiens, UniProt P11712).
The test system of a further assay is H9c2. Description: cells. As to conditions: Rattus norvegicus, H9c2, Myocardium. Format: functional, cell-based.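 Note: confirmatory concentration-response retest of ultra-high-throughput screening hits for modulation of myocardial damage; cell death induced by hydrogen peroxide oxidative stress; compound pretreatment for 60 min then peroxide exposure for 2 h; potency is for protecting the cells against peroxide damage rather than for killing them.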
Assay [6] is described as follows: Luminescence Cell-Based Dose Retest to Confirm Inhibitors of Cancer Stem Cells. [Related pubchem assays (depositor defined):AID2717, AID2721]. Format: functional. Particulars: Homo sapiens.
Assay [7] is described as follows: NIH-3T3 fibroblast cytotoxicity, dose response, cytotoxicity control, cell-based, fluorescence, Alamar Blue, secondary assay (AID 2327).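 Note: NIH-3T3 mouse fibroblasts cultured with fluconazole at 8 µg/mL.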 It is filed as functional. Background: Alamar Blue is a resazurin reagent that responds to reducing activity.
A short description of assay [8]: fluconazole-exposed Candida albicans growth modulators – fluorescence, retest, confirmation (AID 2467). Format: functional, cell-based.
The next assay addresses T1, Cytochrome P450 1A2 (Homo sapiens, UniProt P05177).
T1 sequence (P05177 whole entry): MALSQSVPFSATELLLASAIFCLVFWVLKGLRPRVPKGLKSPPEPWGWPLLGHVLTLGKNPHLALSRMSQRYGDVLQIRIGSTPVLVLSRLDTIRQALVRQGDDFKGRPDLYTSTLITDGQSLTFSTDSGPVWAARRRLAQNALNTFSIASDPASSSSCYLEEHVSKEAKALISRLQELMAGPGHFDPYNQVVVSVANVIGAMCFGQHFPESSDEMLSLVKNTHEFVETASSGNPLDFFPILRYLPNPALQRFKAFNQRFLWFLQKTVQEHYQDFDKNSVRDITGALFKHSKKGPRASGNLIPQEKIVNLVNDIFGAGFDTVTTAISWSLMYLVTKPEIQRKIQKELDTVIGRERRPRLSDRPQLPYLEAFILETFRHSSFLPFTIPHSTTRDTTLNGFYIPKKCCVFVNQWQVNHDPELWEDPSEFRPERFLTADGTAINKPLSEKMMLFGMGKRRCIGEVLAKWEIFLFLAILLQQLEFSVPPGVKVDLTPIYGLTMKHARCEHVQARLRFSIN

The target of a further assay is Cytochrome P450 3A4 (Homo sapiens, UniProt P08684).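 Note: CYP3A4 tested as one member of a cytochrome P450 panel screen.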
The target in the next assay is Paired box protein Pax-8 (Homo sapiens, UniProt Q06710). Description: PAX8 transcriptional activity inhibition in RMG-I – RMG-I cells, luciferase, cherry-pick, dose response (AID 687027).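 Note: luciferase reporter driven by Pax8 target thyroperoxidase promoter measured by SteadyGlo luminescence.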 It is filed as functional, cell-based.
A short description of assay [9]: Luminescence Cell-Based Dose Response HTS to Identify Activators of Luciferase Translation or Activity in H4 […] Cells. [Related pubchem assays: 1829 (Project Summary), 1814 (Primary HTS)]. It is filed as functional.
Another assay relates to H4. In words: Luminescence Cell-Based Dose Response HTS to Identify Activators of 5'UTR Stem-Loop Driven Prion Protein mRNA Translation in H4 Neuroglioblastoma Cells. [Related pubchem assays: 1829 (Project Summary), 1814 (Primary HTS)]. Format: functional. As to conditions: Homo sapiens.
A further assay has as its system INS1. Description: INS-1E survival protection against cytokine death – cell-based, luminescence, retest, dose response (AID 449756).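 Note: cell death triggered by IL-1 beta plus TNF-alpha plus IFN-gamma mixture; protective hits raise ATP signal compared with cytokine alone wells.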 It is filed as functional. As to conditions: Rattus norvegicus.
Assay [10] is described as follows: luciferase reporter signal suppression in cells – H4 neuroglioma cells, luminescence, dose response (AID 1990). It is filed as functional, cell-based. On the technique in general: Reporter assays use an easily measured gene product as a stand-in for the process of interest.
Assay [11] is described as follows: Luminescence Cell-Based Dose Response HTS to Identify Inhibitors of 5'UTR Stem-Loop Driven Prion Protein mRNA Translation in H4 Neuroglioblastoma Cells. [Related pubchem assays: 1827 (Project Summary), 1813 (Primary HTS)]. Format: functional.
The nature of assay [12]: alpha-synuclein stem-loop luciferase translation blockers – H4 neuroglioma cells, luminescence, confirmation (AID 1988). Format: functional, cell-based.

Activity calls are given as the source filed them. Bounds are passed on as bounds.

Sequence of Cytochrome P450 2D6 (P10635 whole entry): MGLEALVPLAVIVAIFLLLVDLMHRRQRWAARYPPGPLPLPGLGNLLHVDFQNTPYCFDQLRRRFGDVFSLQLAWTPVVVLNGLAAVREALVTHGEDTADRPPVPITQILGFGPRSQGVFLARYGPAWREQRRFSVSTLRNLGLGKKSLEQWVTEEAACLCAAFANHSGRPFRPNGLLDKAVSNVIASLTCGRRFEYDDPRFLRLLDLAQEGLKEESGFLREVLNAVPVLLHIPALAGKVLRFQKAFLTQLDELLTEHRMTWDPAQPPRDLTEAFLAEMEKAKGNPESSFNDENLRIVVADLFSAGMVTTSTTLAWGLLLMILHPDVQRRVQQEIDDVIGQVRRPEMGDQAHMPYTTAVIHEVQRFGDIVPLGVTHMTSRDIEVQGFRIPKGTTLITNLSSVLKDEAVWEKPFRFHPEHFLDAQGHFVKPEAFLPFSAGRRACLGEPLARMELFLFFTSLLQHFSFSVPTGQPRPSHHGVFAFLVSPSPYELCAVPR
Sequence of Cytochrome P450 2C19 (P33261 whole entry): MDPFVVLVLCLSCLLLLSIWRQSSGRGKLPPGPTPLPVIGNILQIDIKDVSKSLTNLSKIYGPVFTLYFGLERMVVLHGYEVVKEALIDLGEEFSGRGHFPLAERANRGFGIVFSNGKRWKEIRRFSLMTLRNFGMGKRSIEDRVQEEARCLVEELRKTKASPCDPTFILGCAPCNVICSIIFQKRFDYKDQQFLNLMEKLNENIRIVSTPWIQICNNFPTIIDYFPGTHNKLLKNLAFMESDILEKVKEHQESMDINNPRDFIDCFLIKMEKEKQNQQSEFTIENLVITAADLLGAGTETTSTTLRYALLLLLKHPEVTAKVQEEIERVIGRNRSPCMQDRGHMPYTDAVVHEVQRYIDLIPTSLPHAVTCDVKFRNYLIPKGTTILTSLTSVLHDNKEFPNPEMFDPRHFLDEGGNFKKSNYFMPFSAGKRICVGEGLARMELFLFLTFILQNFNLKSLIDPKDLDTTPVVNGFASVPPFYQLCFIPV
Sequence of Cytochrome P450 2C9 (P11712 whole entry): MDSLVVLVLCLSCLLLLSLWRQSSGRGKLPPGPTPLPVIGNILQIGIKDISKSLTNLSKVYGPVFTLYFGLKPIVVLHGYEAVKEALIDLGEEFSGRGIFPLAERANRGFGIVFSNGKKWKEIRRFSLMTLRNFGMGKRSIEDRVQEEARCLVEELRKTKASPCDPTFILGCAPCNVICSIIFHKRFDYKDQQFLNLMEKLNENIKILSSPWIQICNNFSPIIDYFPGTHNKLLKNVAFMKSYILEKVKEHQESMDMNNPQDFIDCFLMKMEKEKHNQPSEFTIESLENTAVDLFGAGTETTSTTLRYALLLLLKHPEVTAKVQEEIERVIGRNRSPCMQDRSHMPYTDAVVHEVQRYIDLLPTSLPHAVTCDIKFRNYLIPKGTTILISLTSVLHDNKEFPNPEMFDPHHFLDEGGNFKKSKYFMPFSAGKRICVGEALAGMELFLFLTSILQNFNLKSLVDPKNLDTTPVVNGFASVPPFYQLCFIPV
Sequence of Paired box protein Pax-8 (Q06710 whole entry): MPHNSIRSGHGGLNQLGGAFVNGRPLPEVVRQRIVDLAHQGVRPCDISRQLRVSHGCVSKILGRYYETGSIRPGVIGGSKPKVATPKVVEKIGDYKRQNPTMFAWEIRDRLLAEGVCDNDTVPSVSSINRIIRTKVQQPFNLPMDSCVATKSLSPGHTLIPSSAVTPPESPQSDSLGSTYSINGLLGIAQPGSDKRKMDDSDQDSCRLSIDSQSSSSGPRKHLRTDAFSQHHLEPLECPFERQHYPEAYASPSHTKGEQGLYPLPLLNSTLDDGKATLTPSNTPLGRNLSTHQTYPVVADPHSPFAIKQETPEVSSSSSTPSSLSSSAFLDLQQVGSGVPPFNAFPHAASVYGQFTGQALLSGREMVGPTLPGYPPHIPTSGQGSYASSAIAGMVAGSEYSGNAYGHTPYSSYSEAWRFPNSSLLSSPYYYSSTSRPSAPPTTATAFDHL
Sequence of Cytochrome P450 3A4 (P08684 whole entry): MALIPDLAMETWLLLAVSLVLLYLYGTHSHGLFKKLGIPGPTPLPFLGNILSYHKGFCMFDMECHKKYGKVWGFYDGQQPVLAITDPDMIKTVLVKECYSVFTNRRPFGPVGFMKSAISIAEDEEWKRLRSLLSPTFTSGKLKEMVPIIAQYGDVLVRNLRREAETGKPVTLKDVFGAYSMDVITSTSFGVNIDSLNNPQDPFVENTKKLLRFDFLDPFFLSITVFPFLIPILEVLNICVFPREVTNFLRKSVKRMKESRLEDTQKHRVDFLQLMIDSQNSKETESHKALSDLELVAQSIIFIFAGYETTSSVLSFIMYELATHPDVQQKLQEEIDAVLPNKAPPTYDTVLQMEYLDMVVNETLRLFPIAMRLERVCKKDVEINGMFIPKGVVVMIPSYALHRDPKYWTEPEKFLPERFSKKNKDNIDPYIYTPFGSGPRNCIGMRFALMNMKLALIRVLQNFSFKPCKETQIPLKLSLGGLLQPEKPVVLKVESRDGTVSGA

In the case of `Cc1oc(-c2ccc(Cl)cc2)cc1/C(O)=C(C#N)/C=N/c1cccc(OC(F)(F)F)c1`, the EC50 in “cells [1]” and in the assay “cells [2]” was > 350 µM (not active) in each case.
With `CC(C)[C@H](NC(=O)c1ccco1)C(=O)OCc1cc(=O)n2c(n1)sc1ccccc12`, the EC50 in the assay “cells [1]” and in “cells [2]” was > 350 µM (not active) in each case.
For the molecule `CCc1cc2c(=O)c(-c3ccc4c(c3)OCCO4)coc2cc1OS(C)(=O)=O`, the EC50 (commonly the concentration needed to bring the measured effect to its halfway point) in [3] is 14.6 µM (active); in assay [4], 18 µM (active).
Regarding `O=c1[nH]c(=O)n(Cc2ccccc2)c2nc(-c3ccc(Oc4ccc(F)cc4)c([N+](=O)[O-])c3)n(CCO)c12`, in assay [5], the CC50 was 13.9 µM (active). In addition, the results for the EC50 in [3] and in [4] were 7.51 µM (active) and 8.03 µM (active), respectively.
As for `CCN1CCN(c2nc3ccccc3nc2C(C#N)C(=O)OC2CCCCC2)CC1` (stereo not drawn), the AC50 (in general, the concentration giving half of the maximal activity seen) is 39.8 µM (inconclusive) on Cytochrome P450 2C19, 28.2 µM (inconclusive) at Cytochrome P450 2D6 and 39.8 µM (inconclusive) at Cytochrome P450 2C9.
Consider `CCN(C[C@H]1N[C@@](CC)(C(=O)OC)[C@H]2C(=O)N(Cc3ccccc3)C(=O)[C@@H]12)S(=O)(=O)c1ccc(F)cc1`, for which the IC50 (in general, the concentration needed to halve the response being measured) with H9c2 was 13.9 µM (active).
For `CC(C)n1cnc2c(NCc3ccccc3)cc(Cc3ccc(F)cc3)cc21`, the CC50 in [5] was > 40 µM (active). Besides, the half-maximal activity concentration (AC50) in assay [6] was 1.78 µM (active).
Regarding `COc1ccc(COc2cc(-c3cccc(OC)c3)nc3ccc(NC(=O)c4cccnc4)cc23)cc1`, in the assay with H9c2, the IC50 was > 79 µM (inactive).
Take `c1ccc(CSc2nnc(-c3cccs3)n2Cc2ccco2)cc1`: the EC50 in [7] is > 150 µM (inactive); in [8], > 38 µM (not active).
On to `COc1cccc(-c2nc(NCc3cnc(C)cn3)c3ccccc3n2)c1`, for which the AC50 is 25.1 µM (inconclusive) at Cytochrome P450 2C19 and 39.8 µM (inconclusive) on Cytochrome P450 2D6.
As for `CC(OC(=O)COc1ccc(Nc2ccccc2)cc1)C(=O)N(C)c1ccccc1` (stereo not drawn), the 50% effective concentration (EC50) in “cells [1]” is > 350 µM (not active); in “cells [2]” it was 30.5 µM (active).
As to `CCn1c(C)cc(/C=C2\SC(=O)N(CC(=O)Nc3ccc(C)c(C)c3)C2=O)c1C`, the EC50 in assay [3] is 210 µM (active); in [4] it was 24.1 µM (active). Further, the figures for the AC50 on Cytochrome P450 1A2, on Cytochrome P450 3A4 and on Cytochrome P450 2C9 were 8.91 µM (inconclusive), 1 µM (inconclusive) and 1.58 µM (inconclusive), respectively.
As for `c1ccc(-c2ccccc2OCCCN2CCCCCC2)cc1`, the EC50 in assay [7] is > 150 µM (inactive); in [8], > 38 µM (not active).
`Cc1ccc2c(c1)C1NC(S)=NC(C)(O2)C1C(=O)Nc1ccc(Cl)cc1` (stereo not drawn): the EC50 in “cells [1]” and in “cells [2]” was > 350 µM (not active) each time.
Turning to `CCCC(=O)Nc1ccc2c(c1)C(=O)N(C)C[C@@H](OC)[C@H](C)CN(Cc1ccc(-c3ccccn3)cc1)[C@H](C)CO2`, the AC50 on Paired box protein Pax-8 was 28.7 µM (active).
Take `Cc1cccc(NC(=O)CC23CC4CC(C2)CC(n2nnc(C)n2)(C4)C3)c1`: the AC50 on Paired box protein Pax-8 was 37.1 µM (active).
On to `O=C(COC(=O)c1ccccc1[N+](=O)[O-])c1ccc2c(c1)OCO2`, for which the EC50 is > 120 µM (not active) in [9] and 36 µM (active) in the assay with H4.
As for `CSc1nc2ccccc2cc1/C=C(\C#N)c1cccc(C)c1`, the values for the AC50 on Cytochrome P450 2D6, on Cytochrome P450 3A4 and on Cytochrome P450 2C9 were 6.31 µM (inconclusive), 25.1 µM (inconclusive) and 31.6 µM (inconclusive), respectively.
For `O=C1/C(=C\c2cccnc2)CN(Cc2ccccc2)C/C1=C\c1cccnc1`, the EC50 in assay [3] is 1.29 µM (active); in [4], 0.429 µM (active). Further, the results for the AC50 (in assay [6]; in the assay with INS1) were 2.06 µM (active) and 4.87 µM (active), respectively.
On to `COc1cc(C(=O)Nc2cc3c(cc2N2CCCCC2)n(C)c(=O)n3C)cc(OC)c1OC`, for which, in the assay on H9c2, the IC50 was 8.81 µM (active).
Same read-out and setting: the same measure for `Nc1c(C(=O)NC2CCCC2)c2nc3ccccc3nc2n1N`: > 79 µM (inactive).
On to `COc1cc(/C=N/NC(=O)c2ccncc2)ccc1OCC(=O)Nc1ccc(C)c(C)c1`, for which the IC50 with H9c2 was > 79 µM (inactive).
Regarding `Cc1noc(C)c1-c1nc(N(C)C)c2ccccc2n1`, the AC50 was 25.1 µM (inconclusive) at Cytochrome P450 2C19, 20 µM (inconclusive) at Cytochrome P450 2D6 and 15.8 µM (inconclusive) at Cytochrome P450 3A4.
As to `COCc1nnc(NC(=O)c2ccc(S(=O)(=O)N3CCCCCC3)cc2)o1`, the EC50 in assay [7] was > 160 µM (inactive).
For `CC(=O)c1cccc(-c2cnc3c(NC=O)cc(-c4ccc(F)cc4)cn23)c1`, in the assay on H9c2, the IC50 is > 79 µM (inactive).
As to `COc1ccc(C(=O)c2ccccc2)c(O)c1` [OXYBENZONE], the AC50 was 0.398 µM (inconclusive) on Cytochrome P450 2C19 and 12.6 µM (inconclusive) on Cytochrome P450 2D6.
Regarding `O=C(CCc1nnc(-c2ccccc2)o1)c1ccc(Cl)cc1`, the EC50 in the assay “cells [1]” is > 350 µM (not active).
For the molecule `CCN(CC)S(=O)(=O)c1cc(-c2nnc(-c3ccc(Br)cc3)o2)ccc1Cl`, the figures for the EC50 in [3] and in [4] were 28.1 µM (active) and 21.5 µM (active), respectively.
Turning to `CCOC(=O)c1c(NC(=O)CN2CCN(C(=O)c3ccco3)CC2)sc2c1CCCC2`, the EC50 in assay [7] is > 150 µM (inactive); in [8], > 38 µM (not active); in assay [3] it was 35.1 µM (active); in [4], 28.7 µM (active).
Take `CCOC(=O)c1cnc2ccc(C(=O)OC)cc2c1NCCc1ccc(OC)c(OC)c1`: in the assay on H9c2, the IC50 was > 79 µM (inactive).
On to `COc1ccc(C(=O)CSc2nncn2C)cc1`, for which the EC50 in “cells [1]” and in the assay “cells [2]” was > 350 µM (not active) throughout.
For the molecule `C[C@H]1CCCCO[C@@H](CN(C)C(=O)Nc2ccc(C(F)(F)F)cc2)[C@@H](C)CN([C@@H](C)CO)C(=O)c2cc(NS(=O)(=O)c3cn(C)cn3)ccc2O1`, at Paired box protein Pax-8, the AC50 is 17.9 µM (active).
In the case of `Cc1nnc(S)n1/N=C/c1cccc(OCc2ccccc2)c1`, in [5], the CC50 was > 40 µM (active).
For `CN1CCN(C2Cc3ccc(F)cc3Sc3cc(F)c(Cl)cc32)CC1` (stereo not drawn), the EC50 in assay [10] was > 120 µM (not active); in “cells [1]”, > 350 µM (not active); in [11], > 120 µM (not active); in assay [12], > 60 µM (not active); in the assay “cells [2]”, 20.1 µM (active). The AC50 in assay [6] was 6.08 µM (active).
With `O=C(Nc1ccc(F)cc1)c1cnc(-c2ccccc2)nc1-c1ccccc1`, the EC50 is 10 µM (active) in [3] and 9.24 µM (active) in [4].
Regarding `Cc1ccccc1NC(=O)COC(=O)CCc1nc(O)c2ccccc2n1`, the IC50 with H9c2 was 10.1 µM (active).
On the same count and under the same terms, to `COc1nc(N/N=C/c2cc3c(cc2Br)OCO3)nc(N2CCOCC2)n1` belongs > 79 µM (inactive); to `COC(=O)c1[nH]c2c(c1C)C(=O)CC(c1cc(OC)ccc1OC)C2` (stereo not drawn), > 79 µM (inactive).
Consider `CCOCCCNS(=O)(=O)c1ccc(NC(=O)N2c3ccccc3Sc3ccccc32)cc1`, for which, in [5], the CC50 is 36.6 µM (active).
In the case of `COc1ccc(CNS(=O)(=O)c2cc3c4c(c2)C(C)C(=O)N4CCC3)cc1` (stereo not drawn), the EC50 in the assay “cells [1]” and in “cells [2]” was > 350 µM (not active) in each case.
`CCC(=O)Oc1ccc2c(C)cc(=O)oc2c1C`: the IC50 with H9c2 is 74.2 µM (inactive).
On to `COC(=O)c1ccc(/C=C/c2c(-c3ccsc3)oc3ccc(N4CCOCC4)cc23)cc1`, for which, in [5], the CC50 was > 40 µM (active). In assay [6], the AC50 is 3.33 µM (active).
On to `O=C(Oc1ccccc1)N1CCC2(CC1)CCN(c1ccncc1)CC2`, for which the values for the AC50 on Cytochrome P450 2D6 and at Cytochrome P450 2C9 were 39.8 µM (inconclusive) and 20 µM (inconclusive), respectively.

Values taken from ChEMBL document CHEMBL1201862, “PubChem BioAssay data set” (2004).
